Measurements reported in paper PMC3428910 (Bioorganic & medicinal chemistry letters, 2006).

Target: T1, human glutathione reductase (hGR) (Homo sapiens, UniProt P00390)
T1 sequence (P00390 44-522): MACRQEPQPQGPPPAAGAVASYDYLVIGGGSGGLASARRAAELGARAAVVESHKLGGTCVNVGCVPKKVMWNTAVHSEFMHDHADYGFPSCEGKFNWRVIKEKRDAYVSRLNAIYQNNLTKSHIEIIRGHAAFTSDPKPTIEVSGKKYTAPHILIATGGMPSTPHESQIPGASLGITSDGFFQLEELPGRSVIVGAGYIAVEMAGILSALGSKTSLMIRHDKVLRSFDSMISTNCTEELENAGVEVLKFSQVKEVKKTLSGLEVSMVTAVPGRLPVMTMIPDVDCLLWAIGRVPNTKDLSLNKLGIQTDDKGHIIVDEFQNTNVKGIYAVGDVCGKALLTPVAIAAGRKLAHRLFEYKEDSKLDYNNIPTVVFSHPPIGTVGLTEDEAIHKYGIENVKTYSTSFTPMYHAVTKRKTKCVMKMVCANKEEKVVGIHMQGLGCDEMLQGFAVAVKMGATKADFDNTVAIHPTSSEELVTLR
Experiment: Human glutathione reductase inhibition
Assay type: biochemical
Conditions: GR IC50/TR IC50

CC(C)(C)c1cc(CN2CCCCCC2)cc(C(C)(C)C)c1O [Compound 7c]
Selectivity for TR: >4
